Experimental data taken from paper PMC11303713, “Allosteric inhibition of CFTR gating by CFTRinh-172 binding in the pore” (Nature Communications, 2024).
Several values for one entry are separate records, joined by “and”; a condition that tells them apart may be missing. Equal entries are not always repeated. Where two headings read alike, the source gives them in different places.

Tests used:
Assay in all cases: Inside-out patch-clamp inhibition of CFTR current by Inh-172
Format in all cases: cell-based
W1145L-CFTR = biological target: T1, W1145L-CFTR (Homo sapiens, UniProt P13569, W1145L)
T1 construct: expressed in transfected cells; host or cells: CHO cells, pcDNA plasmid
Experimental: (§1) CHO cells were grown at 37 °C in Dulbecco’s modified Eagle’s medium supplemented with 10% (vol/vol) fetal bovine serum (Sigma-Aldrich, St. Louis, MO). pcDNA plasmids carrying the desired CFTR construct were transfected to CHO cells using PolyFect transfection reagent (Qiagen, Hilden, Germany) together with green fluorescence protein (GFP) cDNA (pEGFP-C3, Takara Bio, Shiga, Japan) that helps identify expression of CFTR. Cells were first incubated with the transfection reagents at 37 °C for 6-12 hours on sterile glass chips in 35-mm tissue culture dishes before transferred to 27 °C for incubation for 2–7 days. Primers for mutations were ordered from Integrated DNA Technologies (Coralville, IA) and were summarized in Supplementary Data. All CFTR mutants were prepared with QuikChange XL kit (Agilent, Santa Clara, CA) and sequenced at the DNA Core facility at University of Missouri-Columbia.
(§2) Patch-clamp pipettes were made from borosilicate capillary glass using a two-stage vertical puller (PP-81; Narishige, Amityville, NY). The pipette tips were fire polished with a homemade microforge to yield a pipette resistance of 2–5 MΩ when filled with a pipette solution containing (in mM): 140 NMDG-Cl (N-methyl-D-glucamine-chloride), 5 CaCl2, 2 MgCl2, and 10 HEPES, pH 7.4. For recordings, transfected cells on glass chips were transferred into a continuously perfused chamber on the stage of an inverted microscope (IX51; Olympus, Tokyo, Japan) with the perfusing solution containing (in mM): 150 NMDG-Cl, 2 MgCl2, 10 EGTA, 8 Tris, and 10 HEPES, pH 7.4. The membrane patch was excised to an inside-out configuration with a seal resistance >40 GΩ. CFTR currents were recorded with an amplifier (EPC9; HEKA, Holliston, MA), filtered through an eight-pole Bessel filter (LPF-8; Warner Instruments, Hamden, CT) at 100 Hz and digitized to a computer at a sampling rate of 500 Hz with Pulse software (version 8.53; HEKA). The membrane potential was held at −30 mV. Solution exchange was achieved by a fast solution change system (SF-77B; Warner Instruments). Inh-172 was obtained from the CFTR Chemical Compound Program supported by the Cystic Fibrosis Foundation. All experiments were performed at room temperature.
(§3) The steady state mean currents were measured in the Igor Pro software (version 8.0; WaveMetrics). The mean baseline currents were subtracted from the steady state mean currents before the data were used to determine the degrees of inhibition. The degrees of inhibition by CFTR inhibitor 172 were calculated based on the equation:1 %inhibition=1−IInh−172/I0X100% where I0 and Iinh−172 represent uninhibited and inhibited currents, respectively. The IC50 and Hill coefficients were obtained by fitting percent inhibition as a function of [Inh-172] with the Hill equation:2 %inhibition=base+(max−base)/1+xhalf/x^rate where max and base represent the […] percent inhibition by Inh-172, x represents the concentration of Inh-172, and the rate is the Hill coefficient. The estimated IC50 (xhalf) and Hill coefficients are listed in Table 1 as mean ± standard deviation. Each patch-clamp recording was made from a separate cell.

W1145Y-CFTR = biological target: T2, W1145Y-CFTR (Homo sapiens, UniProt P13569, W1145Y); conditions: for inhibition at 0.5 µM: 500 nM Inh-172; for inhibition at 5 µM: 5000 nM Inh-172; for inhibition at 10 µM: 10000 nM Inh-172
T2 construct: expressed in transfected cells; host or cells: CHO cells, pcDNA plasmid
Experimental: as §1, §2, §3

human WT-CFTR = biological target: T3, human WT-CFTR (Homo sapiens, UniProt P13569); conditions: for inhibition at 0.05 µM: 50 nM Inh-172; for inhibition at 0.1 µM: 100 nM Inh-172; for inhibition at 1 µM: 1000 nM Inh-172
T3 construct: the native wild-type CFTR construct without any deletion or mutation; expressed in transfected cells; host or cells: CHO cells, pcDNA plasmid
Experimental: as §1, §2, §3

pig WT-CFTR = biological target: T4, pig WT-CFTR (Sus scrofa, UniProt Q6PQZ2)
T4 construct: expressed in transfected cells; host or cells: CHO cells, pcDNA plasmid
Experimental: as §1, §2, §3

[1] = 100 nM Inh-172, read-out: percent inhibition of current, Mean
[2] = 500 nM Inh-172, read-out: percent inhibition of current, Mean
[3] = 500 nM Inh-172, read-out: percent inhibition of current, individual cell
[4] = 1000 nM Inh-172, read-out: percent inhibition of current, Mean
[5] = 5000 nM Inh-172, read-out: percent inhibition of current, Mean
[6] = 5000 nM Inh-172, read-out: percent inhibition of current, individual cell
[7] = 10000 nM Inh-172, read-out: percent inhibition of current, Mean
[8] = 10000 nM Inh-172, read-out: percent inhibition of current, individual cell
[9] = read-out: percent inhibition of current, Mean
[10] = read-out: percent inhibition of current, individual cell

T3 sequence (P13569 whole entry): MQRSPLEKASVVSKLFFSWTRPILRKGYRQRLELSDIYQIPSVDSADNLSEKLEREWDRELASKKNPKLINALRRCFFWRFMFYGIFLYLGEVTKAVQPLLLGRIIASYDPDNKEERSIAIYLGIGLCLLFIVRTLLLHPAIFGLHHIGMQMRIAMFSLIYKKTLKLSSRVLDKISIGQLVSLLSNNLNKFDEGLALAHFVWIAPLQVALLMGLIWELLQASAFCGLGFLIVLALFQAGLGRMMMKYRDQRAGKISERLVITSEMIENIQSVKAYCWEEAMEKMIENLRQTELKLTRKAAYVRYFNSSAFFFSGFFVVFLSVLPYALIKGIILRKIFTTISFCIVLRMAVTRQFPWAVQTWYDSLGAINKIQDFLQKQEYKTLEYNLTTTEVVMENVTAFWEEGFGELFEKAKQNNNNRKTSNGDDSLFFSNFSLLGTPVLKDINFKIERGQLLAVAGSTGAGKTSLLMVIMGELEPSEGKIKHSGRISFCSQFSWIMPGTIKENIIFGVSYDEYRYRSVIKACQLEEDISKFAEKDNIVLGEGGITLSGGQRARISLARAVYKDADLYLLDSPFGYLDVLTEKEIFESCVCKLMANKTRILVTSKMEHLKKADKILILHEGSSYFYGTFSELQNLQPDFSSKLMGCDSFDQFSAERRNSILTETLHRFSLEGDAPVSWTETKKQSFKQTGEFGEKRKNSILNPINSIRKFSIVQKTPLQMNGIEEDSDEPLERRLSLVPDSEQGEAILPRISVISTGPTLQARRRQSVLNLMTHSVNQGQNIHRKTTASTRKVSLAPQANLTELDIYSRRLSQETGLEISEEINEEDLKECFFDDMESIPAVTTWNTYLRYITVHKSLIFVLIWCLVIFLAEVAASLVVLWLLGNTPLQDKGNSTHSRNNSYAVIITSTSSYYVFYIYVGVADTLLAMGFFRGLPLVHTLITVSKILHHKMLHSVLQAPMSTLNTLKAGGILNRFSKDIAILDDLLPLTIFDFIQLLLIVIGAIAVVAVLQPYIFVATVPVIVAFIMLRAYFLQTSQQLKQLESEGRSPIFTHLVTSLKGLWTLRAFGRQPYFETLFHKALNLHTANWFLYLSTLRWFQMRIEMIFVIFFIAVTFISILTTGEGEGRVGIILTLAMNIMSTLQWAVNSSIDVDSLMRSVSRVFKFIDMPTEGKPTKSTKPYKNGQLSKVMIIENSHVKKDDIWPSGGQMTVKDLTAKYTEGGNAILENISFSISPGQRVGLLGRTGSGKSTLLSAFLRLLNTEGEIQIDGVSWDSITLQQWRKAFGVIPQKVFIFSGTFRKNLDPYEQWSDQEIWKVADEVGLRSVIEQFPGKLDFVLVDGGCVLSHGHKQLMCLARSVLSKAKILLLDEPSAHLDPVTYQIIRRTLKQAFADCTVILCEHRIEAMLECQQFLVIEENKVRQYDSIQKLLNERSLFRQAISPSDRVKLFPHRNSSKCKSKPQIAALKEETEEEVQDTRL
T1 sequence (P13569 whole entry W1145L): as the sequence (P13569 whole entry) above, with W1145L counted along it
T4 sequence (Q6PQZ2 whole entry): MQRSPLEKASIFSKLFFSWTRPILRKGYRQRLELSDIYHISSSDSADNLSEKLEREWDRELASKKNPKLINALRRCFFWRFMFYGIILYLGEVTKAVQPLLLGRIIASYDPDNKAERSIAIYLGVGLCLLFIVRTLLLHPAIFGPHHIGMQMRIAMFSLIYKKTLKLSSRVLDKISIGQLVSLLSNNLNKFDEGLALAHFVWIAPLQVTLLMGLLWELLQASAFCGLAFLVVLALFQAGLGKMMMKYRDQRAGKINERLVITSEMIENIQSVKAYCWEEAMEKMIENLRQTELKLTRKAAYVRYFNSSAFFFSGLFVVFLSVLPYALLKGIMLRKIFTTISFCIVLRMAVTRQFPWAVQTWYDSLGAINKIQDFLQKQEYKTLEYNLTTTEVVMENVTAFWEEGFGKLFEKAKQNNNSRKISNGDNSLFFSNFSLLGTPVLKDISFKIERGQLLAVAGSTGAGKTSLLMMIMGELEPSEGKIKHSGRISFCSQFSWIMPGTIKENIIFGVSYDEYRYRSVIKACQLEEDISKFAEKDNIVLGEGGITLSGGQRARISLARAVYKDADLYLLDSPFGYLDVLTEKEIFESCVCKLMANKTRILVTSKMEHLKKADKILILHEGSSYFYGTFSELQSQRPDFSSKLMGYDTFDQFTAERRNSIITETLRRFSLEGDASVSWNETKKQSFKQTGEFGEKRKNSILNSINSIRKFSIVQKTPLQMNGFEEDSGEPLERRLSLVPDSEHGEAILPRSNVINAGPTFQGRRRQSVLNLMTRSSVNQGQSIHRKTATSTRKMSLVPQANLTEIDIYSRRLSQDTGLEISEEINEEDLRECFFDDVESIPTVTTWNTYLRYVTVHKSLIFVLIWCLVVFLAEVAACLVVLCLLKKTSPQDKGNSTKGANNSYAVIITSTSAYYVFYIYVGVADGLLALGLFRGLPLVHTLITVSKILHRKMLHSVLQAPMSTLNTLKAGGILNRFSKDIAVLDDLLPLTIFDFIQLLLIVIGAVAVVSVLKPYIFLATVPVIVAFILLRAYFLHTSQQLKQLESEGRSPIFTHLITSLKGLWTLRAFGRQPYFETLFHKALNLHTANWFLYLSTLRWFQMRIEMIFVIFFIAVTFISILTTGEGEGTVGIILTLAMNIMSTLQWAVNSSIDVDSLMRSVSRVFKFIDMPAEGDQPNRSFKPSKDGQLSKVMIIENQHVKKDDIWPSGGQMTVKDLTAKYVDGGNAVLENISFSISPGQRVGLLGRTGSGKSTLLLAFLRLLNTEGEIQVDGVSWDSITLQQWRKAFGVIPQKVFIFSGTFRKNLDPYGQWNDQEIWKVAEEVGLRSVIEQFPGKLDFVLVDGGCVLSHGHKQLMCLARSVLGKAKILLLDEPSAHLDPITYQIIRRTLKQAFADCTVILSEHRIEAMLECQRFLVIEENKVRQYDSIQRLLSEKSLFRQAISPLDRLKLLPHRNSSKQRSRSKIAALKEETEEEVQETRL
T2 sequence (P13569 whole entry W1145Y): as the sequence (P13569 whole entry) above, with W1145Y counted along it

O=C(O)c1ccc(/C=C2\SC(=S)N(c3cccc(C(F)(F)F)c3)C2=O)cc1 [Inh-172, CFTRinh-172]
percent inhibition of current, individual cell (W1145L-CFTR; 100 nM Inh-172): 11 | inhibition at 0.1 µM (W1145L-CFTR; [1]): 16% | inhibition at 0.1 µM (W1145L-CFTR; 100 nM Inh-172, read-out: percent inhibition of current, individual cell): 21% | percent inhibition of current, individual cell (W1145L-CFTR; 500 nM Inh-172): 42 and 48 | inhibition at 0.5 µM (W1145L-CFTR; [2]): 44.3% | inhibition at 0.5 µM (W1145L-CFTR; [3]): 43% | percent inhibition of current, individual cell (W1145L-CFTR; 1000 nM Inh-172): 59 and 67 | inhibition at 1 µM (W1145L-CFTR; [4]): 62.3% | inhibition at 1 µM (W1145L-CFTR; 1000 nM Inh-172, read-out: percent inhibition of current, individual cell): 61% | percent inhibition of current, individual cell (W1145L-CFTR; 5000 nM Inh-172): 83 and 87 and 70 | inhibition at 5 µM (W1145L-CFTR; [5]): 81.3% | inhibition at 5 µM (W1145L-CFTR; [6]): 85% | percent inhibition of current, individual cell (W1145L-CFTR; 10000 nM Inh-172): 91 and 83 | inhibition at 10 µM (W1145L-CFTR; [7]): 89.5% | inhibition at 10 µM (W1145L-CFTR; [8]): 92% | Hill Coefficient (W1145L-CFTR; W1145L): 0.82 ± 0.07 | IC50 (W1145L-CFTR; W1145L): 640 ± 60 nM | inhibition at 0.1 µM (W1145Y-CFTR; [1]): 10.8% | inhibition at 0.5 µM (W1145Y-CFTR; [9]): 38% | inhibition at 0.5 µM (W1145Y-CFTR; [10]): 29% | inhibition at 1 µM (W1145Y-CFTR; [4]): 54% | inhibition at 5 µM (W1145Y-CFTR; [9]): 82% | inhibition at 5 µM (W1145Y-CFTR; [10]): 77% | inhibition at 10 µM (W1145Y-CFTR; [9]): 91.4% | inhibition at 10 µM (W1145Y-CFTR; [10]): 88% | Hill Coefficient (W1145Y-CFTR; W1145Y): 0.92 ± 0.03 | IC50 (W1145Y-CFTR; W1145Y): 870 ± 30 nM | inhibition at 0.025 µM (human WT-CFTR; 25 nM Inh-172, read-out: percent inhibition of current, Mean): 27.2% | inhibition at 0.05 µM (human WT-CFTR; [9]): 33.5% | inhibition at 0.05 µM (human WT-CFTR; [10]): 28% | inhibition at 0.1 µM (human WT-CFTR; [9]): 60.2% | inhibition at 0.1 µM (human WT-CFTR; [10]): 53% | inhibition at 0.5 µM (human WT-CFTR; 0.5 µM Inh-172, read-out: WT-CFTR current inhibited): 80% | inhibition at 0.5 µM (human WT-CFTR; [2]): 81% | inhibition at 0.5 µM (human WT-CFTR; [3]): 75% | inhibition at 1 µM (human WT-CFTR; [9]): 91.4% | inhibition at 1 µM (human WT-CFTR; [10]): 88% | inhibition at 10 µM (human WT-CFTR; [8]): 89% | Hill Coefficient (human WT-CFTR; Human WT): 0.88 ± 0.09 | Hill Coefficient (human WT-CFTR; Human WT + 200 nM VX-770): 1.07 ± 0.10 | IC50 (human WT-CFTR; Human WT + 200 nM VX-770): 250 ± 20 nM | Hill Coefficient (human WT-CFTR; Human WT + 1 µM VX-770): 0.98 ± 0.02 | IC50 (human WT-CFTR; Human WT + 1 µM VX-770): 420 ± 10 nM | IC50 (human WT-CFTR; Human WT, inside-out patch, -30 mV, 2 mM ATP, Hill fit): 80 ± 10 nM | IC50 (human WT-CFTR; human CFTR, value of earlier manuscript version quoted in peer review file): 83 nM | percent inhibition of current, individual cell (pig WT-CFTR; 50 nM Inh-172): 2.0 and 4.0 and 8.0 and 15.0 and 7.0 | inhibition at 0.05 µM (pig WT-CFTR; 50 nM Inh-172, read-out: percent inhibition of current, Mean): 7.2% | percent inhibition of current, individual cell (pig WT-CFTR; 100 nM Inh-172): 2.0 and 18.0 and 5.0 and 13.0 and 6.0 and 7.0 | inhibition at 0.1 µM (pig WT-CFTR; [1]): 8.1% | percent inhibition of current, individual cell (pig WT-CFTR; 500 nM Inh-172): 31.0 and 27.0 and 25.0 and 23.0 | inhibition at 0.5 µM (pig WT-CFTR; [2]): 25.9% | inhibition at 0.5 µM (pig WT-CFTR; [3]): 22% | percent inhibition of current, individual cell (pig WT-CFTR; 1000 nM Inh-172): 33.0 and 38.0 and 40.0 and 21.0 and 41.0 and 44.0 and 39.0 and 36.0 and 29.0 and 42.0 | inhibition at 1 µM (pig WT-CFTR; [4]): 36.3% | percent inhibition of current, individual cell (pig WT-CFTR; 5000 nM Inh-172): 62.0 and 70.0 and 59.0 and 77.0 and 72.0 and 79.0 | inhibition at 5 µM (pig WT-CFTR; [5]): 68.1% | inhibition at 5 µM (pig WT-CFTR; [6]): 67% | percent inhibition of current, individual cell (pig WT-CFTR; 10000 nM Inh-172): 83.0 and 79.0 and 82.0 and 73.0 and 80.0 and 93.0 | inhibition at 10 µM (pig WT-CFTR; [7]): 82.7% | inhibition at 10 µM (pig WT-CFTR; [8]): 89% | Hill Coefficient (pig WT-CFTR; Pig WT): 0.83 ± 0.04 | IC50 (pig WT-CFTR; Pig WT): 1860 ± 120 nM | IC50 of pig WT-CFTR higher than human WT-CFTR (pig WT-CFTR; cho cells inside-out patch): ~ 20 fold
